Source: PubChem BioAssay (NCI)
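All cell lines were grown in 96-well plates and treated with compound for 48 hours. Definition used: TGI = concentration required for complete inhibition of growth.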

Tests used:
Assay in all cases: NCI tumour cell line growth inhibition, 48 h
DMS 273 small cell lung = system: DMS 273 small cell lung
LXFL 529 NSCLC = system: LXFL 529 NSCLC
DMS 114 small cell lung = system: DMS 114 small cell lung
XF 498 CNS = system: XF 498 CNS
KM20L2 colon = system: KM20L2 colon
M19-MEL melanoma = system: M19-MEL melanoma
SNB-78 CNS = system: SNB-78 CNS
RXF-631 renal = system: RXF-631 renal
P388 leukemia = system: P388 leukemia
P388/ADR leukemia = system: P388/ADR leukemia
SN12K1 renal = system: SN12K1 renal

SMILES	TGI (DMS 273 small cell lung) [µM]	TGI (LXFL 529 NSCLC) [µM]	TGI (DMS 114 small cell lung) [µM]	TGI (XF 498 CNS) [µM]	TGI (KM20L2 colon) [µM]	TGI (M19-MEL melanoma) [µM]	TGI (SNB-78 CNS) [µM]	TGI (RXF-631 renal) [µM]	TGI (P388 leukemia) [µM]	TGI (P388/ADR leukemia) [µM]	TGI (SN12K1 renal) [µM]
COc1cc(CNc2nc3c(NC(C)=O)cc(C(F)(F)F)cc3nc2-c2ccccc2)cc(OC)c1OC	> 100	> 100	> 100	> 100	> 100	> 100					
O=c1c2ccccc2n2nnc3ccc(NCCNCCO)c1c32	11.1	14.2	13.4	25.2	8.29	8.61	27.6	9.36			
Cc1cc(C)c(C2=NO[C@@H]3[C@H]2C(=O)C=C2N(Cc4ccccc4)CCO[C@@]23O)c(C)c1	> 100			> 100	> 100	> 100	> 100		> 100	> 100	> 100
CC(C)C(Nc1c2ccccc2[n+](C)c2ccccc12)C(=O)O (centres undefined)	> 100	> 100	> 100	> 100	> 100	> 100	> 100				
